How the values were obtained:
human V1a receptor = biological target: T1, human V1a receptor (Homo sapiens, UniProt P37288); assay: Cellular in vitro assay for vasopressin receptor activity, V1a receptor cell line (photoprotein luminescence); assay type: cell-based; conditions: Table 1A, compounds of the invention; for ratio IC50 hV2/hV1a: selectivity ratio
T1 construct: expressed in transfected cells; host or cells: CHO K1 (ATCC), also stably transfected with a modified aequorin
Procedure: (§1) B-1. Cellular In Vitro Assay for Determining Vasopressin Receptor Activity
The identification of agonists and antagonists of the V1a and V2 vasopressin receptors from humans, rats and dogs as well as the quantification of the activity of the compounds of the invention is carried out using recombinant cell lines. These cell lines originally derive from a hamster's ovary epithelial cell (Chinese Hamster Ovary, CHO K1, ATCC: American Type Culture Collection, Manassas, Va. 20108, USA). The test cell lines constitutively express the human, rat or dog V1a or V2 receptors. In case of the Gαq-coupled V1a receptors, cells are also stably transfected with a modified form of the calcium-sensitive photoproteins aequorin (human and rat V1a) or obelin (dog V1a), which, after reconstitution with the cofactor coelenterazine, emit light when there are increases in free calcium concentrations [Rizzuto R, Simpson A W, Brini M, Pozzan T, Nature, 358, 325-327 (1992); Illarionov B A, Bondar V S, Illarionova V A, Vysotski E S, Gene, 153 (2), 273-274 (1995)]. The resulting vasopressin receptor cells react to stimulation of the recombinantly expressed V1a receptors by intracellular release of calcium ions, which can be quantified by the resulting photoprotein luminescence. The Gs-coupled V2 receptors are stably transfected into cell lines expressing the gene for firefly luciferase under control of a CRE-responsible promoter. Activation of V2 receptors induces the activation of the CRE-responsive promoter via cAMP increase, thereby inducing the expression of firefly luciferase. The light emitted by photoproteins of V1a cell lines as well as the light emitted by firefly luciferase of V2 cell lines corresponds to the activation or inhibition of the respective vasopressin receptor. The bioluminescence of the cell lines is detected using a suitable luminometer [Milligan G, Marshall F, Rees S, Trends in Pharmacological Sciences, 17, 235-237 (1996)].
Vasopressin V1a Receptor Cell Lines:
On the day before the assay, the cells are plated out in culture medium (DMEM/F12, 2% FCS, 2 mM glutamine, 10 mM HEPES, 5 μg/ml coelenterazine) in 384-well microtiter plates and kept in a cell incubator (96% humidity, 5% v/v CO2, 37° C.). On the day of the assay, test compounds in various concentrations are placed for 10 minutes in the wells of the microtiter plate before the agonist [Arg^8]-vasopressin at EC50 concentration is added. The resulting light signal is measured immediately in a luminometer.
Table 1A below lists individual IC50 values for the compounds of the invention (including racemic mixtures as well as separated enantiomers) that were obtained from cell lines transfected with the human V1a or V2 receptor: […]

human V2 receptor = biological target: T2, human V2 receptor (Homo sapiens, UniProt P30518); assay: Cellular in vitro assay for vasopressin receptor activity, V2 receptor cell line (CRE-luciferase); assay type: cell-based; conditions: Table 1A; compounds of the invention; CHO cell line transfected with human V2 receptor, [Arg8]-vasopressin at EC50; read-out: IC50 hV2
T2 construct: expressed in transfected cells; host or cells: CHO K1 (ATCC) line expressing firefly luciferase under a CRE-responsive promoter
T2 sequence (P30518 whole entry): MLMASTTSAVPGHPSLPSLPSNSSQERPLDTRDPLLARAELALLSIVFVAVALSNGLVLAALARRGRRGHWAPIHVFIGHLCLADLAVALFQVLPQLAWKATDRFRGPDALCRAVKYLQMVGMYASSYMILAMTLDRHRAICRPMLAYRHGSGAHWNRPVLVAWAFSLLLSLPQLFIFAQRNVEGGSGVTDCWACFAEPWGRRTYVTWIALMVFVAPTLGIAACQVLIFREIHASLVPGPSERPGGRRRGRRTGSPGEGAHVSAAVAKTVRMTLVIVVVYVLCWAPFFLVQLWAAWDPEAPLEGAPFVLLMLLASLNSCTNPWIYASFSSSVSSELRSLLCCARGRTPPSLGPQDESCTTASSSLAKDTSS
Procedure: as §1
The identification of agonists and antagonists of the V1a and V2 vasopressin receptors from humans, rats and dogs as well as the quantification of the activity of the compounds of the invention is carried out using recombinant cell lines. These cell lines originally derive from a hamster's ovary epithelial cell (Chinese Hamster Ovary, CHO K1, ATCC: American Type Culture Collection, Manassas, Va. 20108, USA). The test cell lines constitutively express the human, rat or dog V1a or V2 receptors. […] The resulting vasopressin receptor cells react to stimulation of the recombinantly expressed V1a receptors by intracellular release of calcium ions, which can be quantified by the resulting photoprotein luminescence. […] The bioluminescence of the cell lines is detected using a suitable luminometer [Milligan G, Marshall F, Rees S, Trends in Pharmacological Sciences, 17, 235-237 (1996)]. […]
On the day before the assay, the cells are plated out in culture medium (DMEM/F12, 2% FCS, 2 mM glutamine, 10 mM HEPES) in 384-well microtiter plates and kept in a cell incubator (96% humidity, 5% v/v CO2, 37° C.). […] Upon addition of the cell lysis reagent Triton™ and the substrate luciferin, luminescence of firefly luciferase is measured in a luminometer. […]

T1 sequence (P37288 whole entry): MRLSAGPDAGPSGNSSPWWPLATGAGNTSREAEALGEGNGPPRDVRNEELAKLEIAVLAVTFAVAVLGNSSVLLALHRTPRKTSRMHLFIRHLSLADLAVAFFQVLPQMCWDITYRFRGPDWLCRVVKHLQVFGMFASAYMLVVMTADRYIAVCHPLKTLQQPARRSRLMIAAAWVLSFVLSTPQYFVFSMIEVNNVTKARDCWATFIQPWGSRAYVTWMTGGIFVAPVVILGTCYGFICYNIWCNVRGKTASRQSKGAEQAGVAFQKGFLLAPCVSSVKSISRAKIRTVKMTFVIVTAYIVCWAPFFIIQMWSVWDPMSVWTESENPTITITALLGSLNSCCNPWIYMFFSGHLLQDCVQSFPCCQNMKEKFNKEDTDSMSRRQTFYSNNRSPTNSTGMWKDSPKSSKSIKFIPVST

SMILES	ratio IC50 hV2/hV1a (human V1a receptor)	IC50 (human V2 receptor) [nM]	IC50 (human V1a receptor; CHO cell line transfected with human V1a receptor, [Arg8]-vasopressin at EC50, read-out: IC50 hV1a) [nM]
NC(=O)c1nc(Cn2nc(-c3ccc(Cl)cc3)n(CC(=O)C(F)(F)F)c2=O)nn1-c1cnccc1Cl [Example 16, 3-{[3-(4-Chlorophenyl)-5-oxo-4-(3,3,3-trifluoro-2-oxopropyl)-4,5-dihydro-1H-1,2,4-triazol-1-yl]methyl}-1-(4-chloropyridin-3-yl)-1H-1,2,4-triazole-5-carboxamide (ketone form) or 3-{[3-(4-Chlorophenyl)-5-oxo-4-(3,3,3-trifluoro-2,2-dihydroxypropyl)-4,5-dihydro-1H-1,2,4-triazol-1-yl]-methyl}-1-(4-chloropyridin-3-yl)-1H-1,2,4-triazole-5-carboxamide (hydrate form)]	53.6	–	–
NC(=O)c1nc(Cn2nc(-c3ccc(Cl)cc3)n(CC(=O)C(F)(F)F)c2=O)nn1-c1ncccc1C(F)(F)F [Example 17, 3-{[3-(4-Chlorophenyl)-5-oxo-4-(3,3,3-trifluoro-2-oxopropyl)-4,5-dihydro-1H-1,2,4-triazol-1-yl]methyl}-1-[3-(trifluoromethyl)pyridin-2-yl]-1H-1,2,4-triazole-5-carboxamide (ketone form) or 3-{[3-(4-Chlorophenyl)-5-oxo-4-(3,3,3-trifluoro-2,2-dihydroxypropyl)-4,5-dihydro-1H-1,2,4-triazol-1-yl]methyl}-1-[3-(trifluoromethyl)pyridin-2-yl]-1H-1,2,4-triazole-5-carboxamide (hydrate form)]	66.0	350	5.3
